Data published in ChEMBL document CHEMBL5360641, “4'-Ethynyl-2'-deoxy-2'-β-fluoro-2-fluoroadenosine: A Highly Potent and Orally Available Clinical Candidate for the Treatment of HIV-1 Infection” (J Med Chem, 2023).

How the values were obtained:
[1] = Cytotoxicity against HEK293T cells assessed as reduction in cell viability by MTT assay; type: toxicity, cell-based, HEK-293T; conditions: human
HEK-293T = experiment: Cytotoxicity against HEK293T cells assessed as reduction in cell viability upto 100 uM MTT assay; type: toxicity, cell-based; conditions: human
[2] = system: Human immunodeficiency virus 1; experiment: Antiviral activity against HIV-1 harboring integrase G140S/Q148H double mutant infected in human TZM-bl cells assessed as inhibition of viral replication incubated for 3 to 7 days by luciferase assay; type: functional, organism-based; conditions: Human immunodeficiency virus 1, TZM-bl
[3] = system: Human immunodeficiency virus 1; experiment: Antiviral activity against HIV-1 harboring protease V82F/[…] double mutant infected in human C8166 cells assessed as inhibition of viral replication by measuring reduction in p24 antigen level incubated for 3 to 7 days by ELISA analysis; type: functional, organism-based; conditions: Human immunodeficiency virus 1, C8166
[4] = system: Human immunodeficiency virus 1; experiment: Antiviral activity against HIV1 TC-1 infected in human PBMC assessed as inhibition of viral replication by measuring reduction in p24 antigen level incubated for 3 to 7 days by ELISA analysis; type: functional, organism-based; conditions: Human immunodeficiency virus 1, TC-1, PBMC
[5] = Acute toxicity in Sprague-Dawley rat assessed as effect on brain damage at 500 to 2000 mg/kg, IG measured on day 15; type: organism-based; conditions: in vivo, po, 360 h, dose 500-2000 mg/kg, time 15 day
[6] = Acute toxicity in Sprague-Dawley rat assessed as effect on liver damage at 500 to 2000 mg/kg, IG measured on day 15; type: organism-based; conditions: in vivo, po, 360 h, dose 500-2000 mg/kg, time 15 day
[7] = Acute toxicity in Sprague-Dawley rat assessed as effect on kidney damage at 500 to 2000 mg/kg, IG measured on day 15; type: organism-based; conditions: in vivo, po, 360 h, dose 500-2000 mg/kg, time 15 day
[8] = Toxicity in Sprague-Dawley rat assessed as death at 10 to 30 mg/kg, po administered once daily for 4 weeks and measured after 24 hrs post last dose; type: organism-based; conditions: in vivo, 696 h, dose 10-30 mg/kg
[9] = AUC (0 to t) in female Sprague-Dawley rat at 10 mg/kg, IG measured at 0.5 hrs LC-MS/MS analysis; type: ADME, organism-based; parameters: time 0.5 hrs, dose 10 mg/kg, route ig; conditions: in vivo, po
[10] = AUC (0 to t) in female Sprague-Dawley rat at 100 mg/kg, IG measured at 0.5 hrs LC-MS/MS analysis; type: ADME, organism-based; parameters: time 0.5 hrs, dose 100 mg/kg, route ig; conditions: in vivo, po
[11] = AUC (0 to t) in male Sprague-Dawley rat at 30 mg/kg, IG measured at 0.5 hrs LC-MS/MS analysis; type: ADME, organism-based; parameters: dose 30 mg/kg, time 0.5 hrs, route ig; conditions: in vivo, po
[12] = AUC (0 to t) in female Sprague-Dawley rat at 10 mg/kg, IG measured at 24 hrs LC-MS/MS analysis; type: ADME, organism-based; parameters: time 24 hrs, dose 10 mg/kg, route ig; conditions: in vivo, po
[13] = AUC (0 to t) in male Sprague-Dawley rat at 10 mg/kg, IG measured at 24 hrs LC-MS/MS analysis; type: ADME, organism-based; parameters: dose 10 mg/kg, time 24 hrs, route ig; conditions: in vivo, po
[14] = AUC (0 to t) in male Sprague-Dawley rat at 30 mg/kg, IG measured at 24 hrs LC-MS/MS analysis; type: ADME, organism-based; parameters: time 24 hrs, dose 30 mg/kg, route ig; conditions: in vivo, po
[15] = Toxicity in po dosed Sprague-Dawley rat assessed as NOAEL administered once daily for 4 weeks and measured after 24 hrs post last dose; type: organism-based; conditions: in vivo
[16] = Tmax in Sprague-Dawley rat at 2.5 mg/kg, IG measured upto 24 hrs by LC-MS/MS analysis; type: ADME, organism-based; conditions: in vivo, po
[17] = Tmax in Sprague-Dawley rat at 10 mg/kg, IG measured upto 24 hrs by LC-MS/MS analysis; type: ADME, organism-based; conditions: in vivo, po
[18] = Half life in Sprague-Dawley rat at 5 mg/kg, IG measured upto 24 hrs by LC-MS/MS analysis; type: ADME, organism-based; conditions: in vivo, po
[19] = Half life in Sprague-Dawley rat at 10 mg/kg, IG measured upto 24 hrs by LC-MS/MS analysis; type: ADME, organism-based; conditions: in vivo, po
[20] = Half life in Sprague-Dawley rat at 5 mg/kg, iv measured upto 24 hrs by LC-MS/MS analysis; type: ADME, organism-based; conditions: in vivo
[21] = AUC (0 to t) in Sprague-Dawley rat at 5 mg/kg, IG measured upto 24 hrs by LC-MS/MS analysis; type: ADME, organism-based; parameters: time < 24 hrs, dose 5 mg/kg, route ig; conditions: in vivo, po
[22] = AUC (0 to t) in Sprague-Dawley rat at 10 mg/kg, IG measured upto 24 hrs by LC-MS/MS analysis; type: ADME, organism-based; parameters: dose 10 mg/kg, time < 24 hrs, route ig; conditions: in vivo, po
[23] = Apparent oral clearance in Sprague-Dawley rat at 2.5 mg/kg, IG measured upto 24 hrs by LC-MS/MS analysis; type: ADME, organism-based; conditions: in vivo
[24] = Apparent […] clearance in Sprague-Dawley rat at 5 mg/kg, iv measured upto 24 hrs by LC-MS/MS analysis; type: ADME, organism-based; conditions: in vivo
[25] = Bioavailability in Sprague-Dawley rat at 5 mg/kg, IG measured upto 24 hrs by LC-MS/MS analysis; type: ADME, organism-based; conditions: in vivo, po
[26] = Bioavailability in Sprague-Dawley rat at 10 mg/kg, IG measured upto 24 hrs by LC-MS/MS analysis; type: ADME, organism-based; conditions: in vivo, po
[27] = Drug uptake in Beagle dog PBMC cells assessed as ((2R,3R,4S,5R)-5-(6-amino-2-fluoro-9H-purin-9-yl)-2-ethynyl-4-fluoro-3-hydroxytetrahydrofuran-2-yl)methyl tetrahydrogen triphosphate formation at 6 to 12 mg/kg, po measured at 2 to 168 hrs by LC-MS/MS analysis; type: ADME, organism-based, Canis lupus familiaris; conditions: in vivo, dose lower 6 mg/kg, time lower 2 hrs, dose upper 12 mg/kg, time upper 168 hrs

With C#C[C@]1(CO)O[C@@H](n2cnc3c(N)nc(F)nc32)[C@@H](F)[C@@H]1O the CC50 [1] was greater than 100000 nM, the Activity (HEK-293T) was “Non-Toxic” and the EC50 [2] was 2.84 nM. For the same compound, the EC50 [3] was 6.75 nM, the EC50 [4] was 6.3 nM and the Activity [5] was “Non-Toxic”. For the same compound, the Activity [6] was “Non-Toxic”, the Activity [7] was “Non-Toxic” and the Activity [8] was “Non-Toxic”. The AUC(0-t) at 0.5 h [9] was 7020 ng·h/mL, the AUC(0-t) at 0.5 h [10] was 87400 ng·h/mL and the AUC(0-t) at 0.5 h [11] was 28200 ng·h/mL. The AUC(0-t) at 24 h [12] was 6800 ng·h/mL, the AUC(0-t) at 24 h [13] was 8150 ng·h/mL and the AUC(0-t) at 24 h [14] was 27100 ng·h/mL. It also gave an NOAEL at 696 h [15] of 30 mg/kg, a Tmax [16] of 0.63 h and a Tmax [17] of 1 h. The half-life [18] was 3.2 h, the half-life [19] was 2.3 h and the half-life [20] was 1.8 h. The AUC(0-t) at 24 h [21] was 3630 ng·h/mL, the AUC(0-t) at 24 h [22] was 8660 ng·h/mL and the CL/F [23] was 24.8 mL/min/kg. It also gave a CL/F [24] of 16.4 mL/min/kg, a bioavailability [25] of 67.5% and a bioavailability [26] of 76.3%. The Drug metabolism [27] was “Metabolite_Detected”.
